Columns and labels:
Test in all cases: KINOMEscan competition binding
Conditions in all cases: compound 10.0 µM
[1] = target: MAP3K4 (human) (UniProt Q9Y6R4)
[2] = system: EIF2AK4 KD2 (human), Q9P2K8 [S808G]
[3] = target: CAMKK2 (human) (UniProt Q96RR4)
[4] = target: PTK2B (human) (UniProt Q14289)
[5] = target: JAK2 JH1 catalytic (human) (UniProt O60674)
[6] = target: STK33 (human) (UniProt Q9BYT3)
[7] = target: CDK11A (human) (UniProt Q9UQ88)
[8] = target: MAP3K10 (human) (UniProt Q02779)
[9] = target: MAPK10 (human) (UniProt P53779)
[10] = target: FER (human) (UniProt P16591)
[11] = target: CHUK (human) (UniProt O15111)
[12] = target: MAPK11 (human) (UniProt Q15759)
[13] = target: MAPK4 (human) (UniProt P31152)
[14] = target: CSF1R (human) (UniProt P07333)
[15] = target: DCLK1 (human) (UniProt O15075)
[16] = target: HIPK1 (human) (UniProt Q86Z02)
[17] = target: TAOK3 (human) (UniProt Q9H2K8)
[18] = target: AAK1 (human) (UniProt Q2M2I8)
[19] = target: PHKG1 (human) (UniProt Q16816)
[20] = target: JAK3 JH1 catalytic (human) (UniProt P52333)
[21] = target: CAMKK1 (human) (UniProt Q8N5S9)
[22] = target: ACVR2B (human) (UniProt Q13705)
[23] = target: EPHA8 (human) (UniProt P29322)
[24] = target: CDK2 (human) (UniProt P24941)
[25] = target: NUAK2 (human) (UniProt Q9H093)
[26] = target: ACVR1 (human) (UniProt Q04771)
[27] = target: CSNK1G3 (human) (UniProt Q9Y6M4)
[28] = target: MAP3K7 (human) (UniProt O43318)
[29] = system: EGFR (human), P00533 [P753S; 747-752 del]
[30] = target: MUSK (human) (UniProt O15146)
[31] = target: RIPK2 (human) (UniProt O43353)
[32] = target: TYK2 JH2 pseudokinase (human) (UniProt P29597)
[33] = target: MYO3B (human) (UniProt Q8WXR4)
[34] = target: RAF1 (human) (UniProt P04049)
[35] = target: TEK (human) (UniProt Q02763)
[36] = target: AURKC (human) (UniProt Q9UQB9)
[37] = target: EPHB3 (human) (UniProt P54753)
[38] = target: MAP3K5 (human) (UniProt Q99683)
[39] = target: RPS6KA1 KD2 (human) (UniProt Q15418)
[40] = system: PIK3CA (human), P42336 [E545K]
[41] = target: CLK2 (human) (UniProt P49760)
[42] = target: STK17A (human) (UniProt Q9UEE5)

Chain of CSF1R (human) (P07333 whole entry, looked up): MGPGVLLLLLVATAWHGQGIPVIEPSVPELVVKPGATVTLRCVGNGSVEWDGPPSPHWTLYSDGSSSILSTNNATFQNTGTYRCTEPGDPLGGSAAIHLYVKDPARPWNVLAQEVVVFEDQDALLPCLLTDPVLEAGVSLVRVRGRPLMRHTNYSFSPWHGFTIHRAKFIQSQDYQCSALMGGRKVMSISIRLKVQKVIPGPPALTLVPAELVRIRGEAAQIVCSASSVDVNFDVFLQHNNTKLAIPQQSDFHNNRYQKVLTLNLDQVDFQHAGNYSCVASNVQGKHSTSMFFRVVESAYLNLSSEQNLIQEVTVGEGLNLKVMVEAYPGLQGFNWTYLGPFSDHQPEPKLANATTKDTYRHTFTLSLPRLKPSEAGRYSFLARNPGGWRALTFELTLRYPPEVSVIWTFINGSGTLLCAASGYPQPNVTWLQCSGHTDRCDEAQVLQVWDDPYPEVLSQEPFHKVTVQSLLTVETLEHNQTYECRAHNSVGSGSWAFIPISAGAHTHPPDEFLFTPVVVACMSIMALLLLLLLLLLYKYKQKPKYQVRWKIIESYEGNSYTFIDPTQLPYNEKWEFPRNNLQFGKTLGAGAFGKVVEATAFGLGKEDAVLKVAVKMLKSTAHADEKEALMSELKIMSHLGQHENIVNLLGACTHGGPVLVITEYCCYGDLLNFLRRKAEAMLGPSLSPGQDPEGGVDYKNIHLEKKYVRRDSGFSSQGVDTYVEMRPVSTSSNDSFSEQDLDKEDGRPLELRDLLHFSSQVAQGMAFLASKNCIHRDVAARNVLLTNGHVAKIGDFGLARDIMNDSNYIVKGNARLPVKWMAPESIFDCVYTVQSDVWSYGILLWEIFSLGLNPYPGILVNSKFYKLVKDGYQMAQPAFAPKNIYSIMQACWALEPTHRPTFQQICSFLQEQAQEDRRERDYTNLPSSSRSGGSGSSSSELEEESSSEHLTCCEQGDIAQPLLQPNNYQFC
Chain of CLK2 (human) (P49760 whole entry, looked up): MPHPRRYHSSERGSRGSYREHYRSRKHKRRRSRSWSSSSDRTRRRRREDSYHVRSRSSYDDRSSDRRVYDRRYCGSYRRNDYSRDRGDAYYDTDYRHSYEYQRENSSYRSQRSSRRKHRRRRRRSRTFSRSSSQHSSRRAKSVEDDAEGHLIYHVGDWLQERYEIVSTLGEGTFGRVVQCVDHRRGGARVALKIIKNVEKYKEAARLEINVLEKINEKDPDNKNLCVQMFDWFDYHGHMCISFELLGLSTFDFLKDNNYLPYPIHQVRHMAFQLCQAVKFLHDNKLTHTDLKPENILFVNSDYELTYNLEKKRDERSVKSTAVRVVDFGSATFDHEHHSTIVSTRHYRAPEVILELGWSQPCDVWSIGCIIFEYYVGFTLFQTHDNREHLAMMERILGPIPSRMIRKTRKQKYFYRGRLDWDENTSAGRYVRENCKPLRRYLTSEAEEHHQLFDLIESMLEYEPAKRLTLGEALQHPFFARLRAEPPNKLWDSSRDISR
Chain of TAOK3 (human) (Q9H2K8 whole entry, looked up): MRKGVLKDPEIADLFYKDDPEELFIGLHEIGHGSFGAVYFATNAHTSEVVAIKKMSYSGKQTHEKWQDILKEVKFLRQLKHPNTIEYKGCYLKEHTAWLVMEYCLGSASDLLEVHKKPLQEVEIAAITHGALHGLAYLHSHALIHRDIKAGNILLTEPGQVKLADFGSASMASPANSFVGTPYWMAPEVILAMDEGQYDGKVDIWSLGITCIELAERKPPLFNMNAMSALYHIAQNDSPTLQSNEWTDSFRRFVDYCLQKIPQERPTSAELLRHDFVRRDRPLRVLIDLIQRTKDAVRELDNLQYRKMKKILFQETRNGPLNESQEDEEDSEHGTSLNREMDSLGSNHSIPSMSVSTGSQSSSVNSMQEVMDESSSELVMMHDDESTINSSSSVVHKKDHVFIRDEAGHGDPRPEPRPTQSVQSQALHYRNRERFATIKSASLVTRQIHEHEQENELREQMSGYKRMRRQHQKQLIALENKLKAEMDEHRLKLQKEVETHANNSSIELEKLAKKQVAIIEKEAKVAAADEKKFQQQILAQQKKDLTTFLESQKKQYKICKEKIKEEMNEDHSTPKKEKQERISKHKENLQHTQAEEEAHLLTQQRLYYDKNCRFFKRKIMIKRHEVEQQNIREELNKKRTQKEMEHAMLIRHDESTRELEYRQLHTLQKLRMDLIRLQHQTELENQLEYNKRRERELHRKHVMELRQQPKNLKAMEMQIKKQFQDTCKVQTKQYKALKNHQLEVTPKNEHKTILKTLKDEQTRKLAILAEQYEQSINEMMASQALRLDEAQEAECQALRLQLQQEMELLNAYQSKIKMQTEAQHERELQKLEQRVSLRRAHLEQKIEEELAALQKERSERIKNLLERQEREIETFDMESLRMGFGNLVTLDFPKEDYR
Chain of TYK2 JH2 pseudokinase (human) (P29597 whole entry, looked up): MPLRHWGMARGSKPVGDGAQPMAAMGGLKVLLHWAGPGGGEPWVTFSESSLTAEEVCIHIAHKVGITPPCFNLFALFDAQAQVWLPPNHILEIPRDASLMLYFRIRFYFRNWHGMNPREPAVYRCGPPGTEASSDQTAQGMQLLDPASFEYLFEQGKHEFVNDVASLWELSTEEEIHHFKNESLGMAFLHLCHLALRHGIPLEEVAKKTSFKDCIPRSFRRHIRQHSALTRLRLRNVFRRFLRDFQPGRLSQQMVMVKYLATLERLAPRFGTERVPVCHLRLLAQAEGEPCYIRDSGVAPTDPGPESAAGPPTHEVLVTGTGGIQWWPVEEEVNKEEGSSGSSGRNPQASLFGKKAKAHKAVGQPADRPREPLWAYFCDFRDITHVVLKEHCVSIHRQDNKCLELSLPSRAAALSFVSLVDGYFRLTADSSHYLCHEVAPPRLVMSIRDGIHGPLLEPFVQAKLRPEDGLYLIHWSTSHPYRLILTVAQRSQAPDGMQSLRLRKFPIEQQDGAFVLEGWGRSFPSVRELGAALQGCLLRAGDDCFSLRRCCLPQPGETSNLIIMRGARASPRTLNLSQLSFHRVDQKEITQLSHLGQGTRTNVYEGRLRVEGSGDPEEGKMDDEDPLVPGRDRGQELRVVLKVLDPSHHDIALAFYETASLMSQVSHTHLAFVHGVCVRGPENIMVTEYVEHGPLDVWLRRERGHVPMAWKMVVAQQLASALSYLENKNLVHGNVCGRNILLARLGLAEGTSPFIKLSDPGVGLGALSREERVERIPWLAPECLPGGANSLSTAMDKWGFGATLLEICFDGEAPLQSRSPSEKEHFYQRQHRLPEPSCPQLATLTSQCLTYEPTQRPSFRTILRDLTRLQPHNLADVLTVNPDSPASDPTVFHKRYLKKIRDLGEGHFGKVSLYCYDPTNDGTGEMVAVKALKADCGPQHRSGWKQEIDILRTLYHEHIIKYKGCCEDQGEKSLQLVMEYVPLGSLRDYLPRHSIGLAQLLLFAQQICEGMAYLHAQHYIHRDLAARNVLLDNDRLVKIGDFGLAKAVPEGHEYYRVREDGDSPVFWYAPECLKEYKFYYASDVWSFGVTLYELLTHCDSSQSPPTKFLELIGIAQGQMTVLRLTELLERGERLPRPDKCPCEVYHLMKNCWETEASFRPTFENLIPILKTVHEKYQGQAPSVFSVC
Chain of MYO3B (human) (Q8WXR4 whole entry, looked up): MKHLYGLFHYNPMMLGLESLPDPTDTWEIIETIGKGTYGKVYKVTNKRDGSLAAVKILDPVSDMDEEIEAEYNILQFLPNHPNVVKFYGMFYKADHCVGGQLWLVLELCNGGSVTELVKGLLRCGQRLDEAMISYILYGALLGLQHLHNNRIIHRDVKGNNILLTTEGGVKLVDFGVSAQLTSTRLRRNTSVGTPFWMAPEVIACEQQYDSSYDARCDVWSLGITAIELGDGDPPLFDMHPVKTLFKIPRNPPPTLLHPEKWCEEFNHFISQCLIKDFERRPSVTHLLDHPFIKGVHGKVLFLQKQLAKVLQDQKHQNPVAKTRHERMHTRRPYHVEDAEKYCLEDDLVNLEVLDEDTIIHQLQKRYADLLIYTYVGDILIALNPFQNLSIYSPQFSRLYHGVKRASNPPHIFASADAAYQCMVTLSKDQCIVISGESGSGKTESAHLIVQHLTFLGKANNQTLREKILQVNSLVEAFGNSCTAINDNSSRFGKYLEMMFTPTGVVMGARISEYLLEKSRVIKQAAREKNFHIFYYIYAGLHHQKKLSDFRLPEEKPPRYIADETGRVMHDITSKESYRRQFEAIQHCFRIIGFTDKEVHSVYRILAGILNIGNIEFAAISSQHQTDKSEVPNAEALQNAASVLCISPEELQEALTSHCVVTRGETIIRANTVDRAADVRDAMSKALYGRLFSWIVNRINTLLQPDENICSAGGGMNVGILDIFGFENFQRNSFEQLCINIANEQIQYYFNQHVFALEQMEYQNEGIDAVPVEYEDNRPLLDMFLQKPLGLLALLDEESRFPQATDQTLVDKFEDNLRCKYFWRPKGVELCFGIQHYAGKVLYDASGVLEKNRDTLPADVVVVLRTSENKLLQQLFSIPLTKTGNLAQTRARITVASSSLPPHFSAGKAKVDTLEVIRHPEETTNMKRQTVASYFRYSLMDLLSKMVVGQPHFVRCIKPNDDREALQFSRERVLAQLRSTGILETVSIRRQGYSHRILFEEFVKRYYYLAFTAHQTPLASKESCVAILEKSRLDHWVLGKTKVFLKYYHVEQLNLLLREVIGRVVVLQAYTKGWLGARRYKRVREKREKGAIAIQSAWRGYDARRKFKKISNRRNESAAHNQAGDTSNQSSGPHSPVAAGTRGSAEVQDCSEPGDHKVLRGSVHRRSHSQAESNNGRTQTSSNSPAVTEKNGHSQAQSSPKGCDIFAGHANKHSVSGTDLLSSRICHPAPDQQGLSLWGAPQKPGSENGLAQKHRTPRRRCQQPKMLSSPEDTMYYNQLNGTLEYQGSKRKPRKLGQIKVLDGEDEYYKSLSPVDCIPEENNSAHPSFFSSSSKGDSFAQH

`CN1CCN(c2ccc(C(=O)Nc3ncc4c(n3)N(C)c3ccccc3C(=O)N4C)cc2)CC1` was tested, and the kinase still bound, per cent of control [1] was 100%, the kinase still bound, per cent of control [2] was 100% and the kinase still bound, per cent of control [3] was 97%. The kinase still bound, per cent of control [4] was 100%, the kinase still bound, per cent of control [5] was 6.2% and the kinase still bound, per cent of control [6] was 100%. The kinase still bound, per cent of control [7] was 100%, the kinase still bound, per cent of control [8] was 99% and the kinase still bound, per cent of control [9] was 93%. It also gave a kinase still bound, per cent of control [10] of 72%, a kinase still bound, per cent of control [11] of 83% and a kinase still bound, per cent of control [12] of 100%. The kinase still bound, per cent of control [13] was 100%, the kinase still bound, per cent of control [14] was 71% and the kinase still bound, per cent of control [15] was 24%. For the same compound, the kinase still bound, per cent of control [16] was 100%, the kinase still bound, per cent of control [17] was 92% and the kinase still bound, per cent of control [18] was 100%. The kinase still bound, per cent of control [19] was 98%, the kinase still bound, per cent of control [20] was 100% and the kinase still bound, per cent of control [21] was 100%. It also gave a kinase still bound, per cent of control [22] of 100%, a kinase still bound, per cent of control [23] of 92% and a kinase still bound, per cent of control [24] of 98%. For the same compound, the kinase still bound, per cent of control [25] was 100%, the kinase still bound, per cent of control [26] was 91% and the kinase still bound, per cent of control [27] was 100%. The kinase still bound, per cent of control [28] was 89%, the kinase still bound, per cent of control [29] was 100% and the kinase still bound, per cent of control [30] was 100%. The kinase still bound, per cent of control [31] was 100%, the kinase still bound, per cent of control [32] was 61% and the kinase still bound, per cent of control [33] was 93%. For the same compound, the kinase still bound, per cent of control [34] was 100%, the kinase still bound, per cent of control [35] was 100% and the kinase still bound, per cent of control [36] was 99%. The kinase still bound, per cent of control [37] was 100%, the kinase still bound, per cent of control [38] was 94% and the kinase still bound, per cent of control [39] was 94%. It also gave a kinase still bound, per cent of control [40] of 99%, a kinase still bound, per cent of control [41] of 96% and a kinase still bound, per cent of control [42] of 100%.

Compound `CN1C(=O)c2ccccc2N(C)c2nc(NS(=O)(=O)c3ccc(N)cc3)ncc21` has a kinase still bound, per cent of control [1] of 85%, a kinase still bound, per cent of control [2] of 100% and a kinase still bound, per cent of control [3] of 100%. The kinase still bound, per cent of control [4] was 100%, the kinase still bound, per cent of control [5] was 42% and the kinase still bound, per cent of control [6] was 100%. For the same compound, the kinase still bound, per cent of control [7] was 99%, the kinase still bound, per cent of control [8] was 100% and the kinase still bound, per cent of control [9] was 100%. The kinase still bound, per cent of control [10] was 62%, the kinase still bound, per cent of control [11] was 95% and the kinase still bound, per cent of control [12] was 100%. It also gave a kinase still bound, per cent of control [13] of 88%, a kinase still bound, per cent of control [14] of 89% and a kinase still bound, per cent of control [15] of 39%. The kinase still bound, per cent of control [16] was 100%, the kinase still bound, per cent of control [17] was 72% and the kinase still bound, per cent of control [18] was 100%. For the same compound, the kinase still bound, per cent of control [19] was 100%, the kinase still bound, per cent of control [20] was 100% and the kinase still bound, per cent of control [21] was 100%. For the same compound, the kinase still bound, per cent of control [22] was 100%, the kinase still bound, per cent of control [23] was 100% and the kinase still bound, per cent of control [24] was 100%. For the same compound, the kinase still bound, per cent of control [25] was 70%, the kinase still bound, per cent of control [26] was 100% and the kinase still bound, per cent of control [27] was 100%. For the same compound, the kinase still bound, per cent of control [28] was 87%, the kinase still bound, per cent of control [29] was 100% and the kinase still bound, per cent of control [30] was 100%. For the same compound, the kinase still bound, per cent of control [31] was 100%, the kinase still bound, per cent of control [32] was 63% and the kinase still bound, per cent of control [33] was 74%. The kinase still bound, per cent of control [34] was 100%, the kinase still bound, per cent of control [35] was 97% and the kinase still bound, per cent of control [36] was 74%. For the same compound, the kinase still bound, per cent of control [37] was 100%, the kinase still bound, per cent of control [38] was 100% and the kinase still bound, per cent of control [39] was 100%. For the same compound, the kinase still bound, per cent of control [40] was 91%, the kinase still bound, per cent of control [41] was 100% and the kinase still bound, per cent of control [42] was 100%.

`COc1cc(N2CCN(C)CC2)ccc1Nc1ncc2c(n1)Nc1ccccc1NC2=O` showed a kinase still bound, per cent of control [1] of 95%, a kinase still bound, per cent of control [2] of 12% and a kinase still bound, per cent of control [3] of 100%. The kinase still bound, per cent of control [4] was 99%, the kinase still bound, per cent of control [5] was 85% and the kinase still bound, per cent of control [6] was 51%. The kinase still bound, per cent of control [7] was 82%, the kinase still bound, per cent of control [8] was 100% and the kinase still bound, per cent of control [9] was 58%. The kinase still bound, per cent of control [10] was 100%, the kinase still bound, per cent of control [11] was 67% and the kinase still bound, per cent of control [12] was 100%. It also gave a kinase still bound, per cent of control [13] of 99%, a kinase still bound, per cent of control [14] of 75% and a kinase still bound, per cent of control [15] of 59%. The kinase still bound, per cent of control [16] was 45%, the kinase still bound, per cent of control [17] was 2.1% and the kinase still bound, per cent of control [18] was 75%. It also gave a kinase still bound, per cent of control [19] of 46%, a kinase still bound, per cent of control [20] of 92% and a kinase still bound, per cent of control [21] of 40%. It also gave a kinase still bound, per cent of control [22] of 52%, a kinase still bound, per cent of control [23] of 80% and a kinase still bound, per cent of control [24] of 100%. The kinase still bound, per cent of control [25] was 71%, the kinase still bound, per cent of control [26] was 37% and the kinase still bound, per cent of control [27] was 96%. The kinase still bound, per cent of control [28] was 96%, the kinase still bound, per cent of control [29] was 39% and the kinase still bound, per cent of control [30] was 100%. For the same compound, the kinase still bound, per cent of control [31] was 100%, the kinase still bound, per cent of control [32] was 1% and the kinase still bound, per cent of control [33] was 100%. The kinase still bound, per cent of control [34] was 89%, the kinase still bound, per cent of control [35] was 100% and the kinase still bound, per cent of control [36] was 55%. For the same compound, the kinase still bound, per cent of control [37] was 93%, the kinase still bound, per cent of control [38] was 100% and the kinase still bound, per cent of control [39] was 43%. The kinase still bound, per cent of control [40] was 100%, the kinase still bound, per cent of control [41] was 95% and the kinase still bound, per cent of control [42] was 62%.
